Test results: patent US10960084B2, “Modulation of fluid intake” (California Institute of Technology, priority 2018, dated 2021)
“Also recorded” adds a separate entry of the source.

Assays:
[1] = system: hM4Di-expressing MnPO^nNOS neurons; test: Slice current-clamp recording, CNO on hM4Di-expressing MnPO^nNOS neurons; format: cell-based, mice; settings: brain slices
From the text: (§1) Procedures for preparation of acute brain slices and recordings with optogenetic stimulations were similar to those described previously^[10],[36]. After decapitation, the brain was removed and immersed in ice-cold solution. Coronal slices ([…]) were cut using a vibratome (VT-1200s, Leica) and moved into HEPES-holding solution (NaCl 92, KCl 2.5, NaH2PO4 1.2, NaHCO3 30, HEPES 20, glucose 25, Na-ascorbate 5, Thiourea 2, Na14 pyruvate 3, MgSO4 2, CaCl2 2, pH 7.35). The slices were allowed to recover at 33° C. for 30 min and then held at room temperature ([…]) until use.
(§2) While recording, slices were perfused continuously (˜2 mL/min) with artificial cerebrospinal fluid (ACSF-NaCl 124, KCl2.5, NaH2PO4 1.2, NaHCO3 24, glucose 25, MgSO4 1, CaCl2 2) at 25° C. Neurons were visualized and targeted using an upright IR19 DIC microscope (BX51WI, Olympus). […] In order to confirm the PSCs recorded were GABAergic, picrotoxin (150 μM) was applied through the bath in part of the experiments. […] CNO (˜6 μM) was applied by a puff (30 s) from another glass pipette placed ˜50 μm from the recorded cell.

SFO^nNOS neurons = test: Salt/Mannitol loading with fiber photometry of SFO^nNOS/MnPO^nNOS neurons and drinking; format: in vivo, mice
Experimental: Salt/Mannitol Loading Experiments: 150 μL/300 μL of 2 M NaCl or 300 μL of 2 M Mannitol was injected intraperitoneally at the end of the acclimatization period. For FIGS. 1P-T and FIGS. 7P-S, CNO or vehicle (water) was injected 10 min prior to NaCl/Mannitol injection. We measured bulk fluorescence signals using fiber photometry as previously described^[26]. Briefly, 490 nm and 405 nm LEDs ([…] and […]) were collimated and delivered to the brain. The light intensity was kept less than 100 μW during all recordings. The fluorescence signal was then focused onto a femtowatt photoreceiver (Newport, Model 2151). The modulation and demodulation were done with an RP2.1 real time processor (Tucker-Davis Technologies) running custom software. The licks from the lickometer were simultaneously recorded as real-time TTL signals to the RP2.1. Fluorescence changes were analyzed using custom MATLAB (MathWorks) code as described previously^[26]. Data were extracted and subjected to a low pass filter at 1.8 Hz. A linear function was used to scale up the 405 nm channel signal to the 490 nm channel signal to get the fitted 405 nm signal. The resultant ΔF/F was calculated as (raw 490 nm signal-fitted 405 nm signal)/(fitted 405 nm signal). For brief access tests, the Area Under Curve (ΣΔFduring) was quantified by integrating the fluorescence signals during the bout. For all bouts, the mean fluorescence for 30 s prior to the first lick was calculated and subtracted from the entire session. ΔF changes (ΔFpost-ΔFpre) were calculated by subtracting the mean fluorescence signal during the 2-s period before the first lick from the mean signal during the 2-s at 1 min after the bout. For displaying traces, the fluorescence data was time-binned by a factor of 2.5 times the sampling frequency and down-sampled to 1 Hz. For long-term tests, the Area Under Curve was calculated for 2.5 min after the start of the bout. […] For […]), the first bout at the start of the session and the last bout within 10 min of access were used. The AUC for the PSTHs were calculated during the first or the last 15 seconds.

[2] = system: hM4Di-expressing MnPO^GLP1r neurons; test: Slice current-clamp recording, CNO on hM4Di-expressing MnPO^GLP1r neurons; format: cell-based, mice; settings: CNO application
From the text: as §1, §2

[3] = GCaMP6s fiber photometry, MnPO^nNOS inhibited by CNO

C[N+]1([O-])CCN(C2=Nc3cc(Cl)ccc3Nc3ccccc32)CC1 [CNO, clozapine-N-oxide]
neurons in which firing is inhibited ([1]; CNO application): 6/6
firing of hM4Di-expressing MnPO^nNOS neurons ([1]; brief application of CNO): strongly suppressed the firing
calcium increases / activity of SFO^nNOS neurons by mannitol-induced osmotic stress (SFO^nNOS neurons; [3]): unaffected; also recorded: without changing the activity
calcium increases in SFO^nNOS neurons by NaCl-induced osmotic stress (SFO^nNOS neurons; [3]): unaffected
drinking behavior after Mannitol injection (SFO^nNOS neurons; hM4Di in MnPO^nNOS, CNO 10 min prior to intraperitoneal Mannitol): intensely suppressed drinking responses; also recorded: drastically suppressed drinking behavior
drinking behavior after NaCl injection (SFO^nNOS neurons; hM4Di in MnPO^nNOS, CNO 10 min prior to intraperitoneal NaCl): intensely suppressed drinking responses; also recorded: drastically suppressed drinking behavior
neurons in which firing is inhibited [2]: 6/7
